Assay: Acid-base equilibrium (pKa) of olopatadine
Type: physicochemical
Source text: Olopatadine has both a carboxylic functional group (pKa1=4.18) and a tertiary amino group (pKa2=9.79). It exists in different ionic forms depending upon the pH of the solution. Olopatadine exists predominantly as a zwitterion in the pH range between the two pKa values with a negatively-charged carboxylic group and a positively-charged tertiary amino group. The iso-electric point of the olopatadine zwitterion is at pH 6.99. At a pH lower than pKa1, cationic olopatadine (with ionized tertiary amino group) is dominant. At a pH higher than pKa2, anionic olopatadine (with ionized carboxylic group) is dominant.

- iso-electric point of the olopatadine zwitterion: 6.99 pH
- pKa1 (carboxylic functional group): 4.18
- pKa2 (tertiary amino group): 9.79
SMILES: CN(C)CC/C=C1/c2ccccc2COc2ccc(CC(=O)O)cc21 [Olopatadine, Z-11-(3-dimethylaminopropylidene)-6,1′-dihydrodibenz[b,e]oxepine-2-acetic acid]
